Laboratory results taken from EP0316690A2, “Agent for the treatment of ischemic heart diseases” (Dr. Karl Thomae GmbH, priority 1987, dated 1989).

Columns and labels:
[1] = target: T1, frequenzbeeinflussende M-Rezeptoren (Rattus norvegicus, UniProt P10980); test: Isolated perfused Langendorff heart: antagonism of the negative chronotropic carbachol effect on heart rate (HR/HF); design: species or system Wistar Ratten; settings: isolated spontaneously beating rat heart, agonist Carbachol bolus 10⁻⁶ bis 10⁻²M, antagonist in perfusate; read-out: pA₂-Werte Herzfrequenz-Effekt HR (converted)
T1 construct: danach das Herz entnommen; from tissue; host or cells: isolated perfused Langendorff heart of male Wistar rats
T1 sequence (P10980 1-466): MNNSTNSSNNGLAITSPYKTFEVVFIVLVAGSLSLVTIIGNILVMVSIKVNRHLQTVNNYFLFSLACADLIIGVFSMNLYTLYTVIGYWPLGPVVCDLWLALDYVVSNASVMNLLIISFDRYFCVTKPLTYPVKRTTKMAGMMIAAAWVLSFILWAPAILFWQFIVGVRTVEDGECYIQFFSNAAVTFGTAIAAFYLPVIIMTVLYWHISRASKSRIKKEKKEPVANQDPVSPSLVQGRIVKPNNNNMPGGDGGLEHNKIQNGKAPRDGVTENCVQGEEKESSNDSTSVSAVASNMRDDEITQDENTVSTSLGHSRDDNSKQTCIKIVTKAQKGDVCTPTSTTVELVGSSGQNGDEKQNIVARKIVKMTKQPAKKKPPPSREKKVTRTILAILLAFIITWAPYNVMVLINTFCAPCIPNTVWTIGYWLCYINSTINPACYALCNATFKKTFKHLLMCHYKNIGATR
Experimental: (§1) Meßparameter sind Herzfrequenz und Coronarfluß.
(§2) Männliche Wistar Ratten mit einem Körpergewicht zwischen 300 und 350 g wurden mit Pentobarbital (70 mg/kg i.p.) anaesthe siert. […] Die Herzen wurden über die Aorta mit Krebs-Henseleit-Puffer (KHB) retograd bei einem konstanten Druck von 70 mm Hg perfundiert. Die Zusammensetzung des KHB betrug in mM: Kochsalz 114, Kaliumchlorid 4,7, Natriumbicarbonat 23,6, Kaliumdihydrogenphosphat 1,2, Magnesiumsulfat 1,1, Calziumchlorid 2,5. 11 mM Glucose wurden als Substrat beigefügt. Die Herzfrequenz (HR) wurde durch einen Tachographen (IFD, Mülheim) gemessen, der Coronarfluß (CF) wurde mittels eines elektromagnetischen Flowmeters (IFD, Mülheim) in Verbindung mit einer Sonde in dem zuführenden Teil der Aorta bestimmt.
(§3) Nach einer 15-minütigen Stabilisierungsphase in allen Experimenten wurde die erste Dosis-Wirkungs-Kurve erstellt. Dies geschah durch die Gabe von dem Fluß angepaßten Bolus-Injektionen (0,01 ml/10 ml CF) mit ansteigenden Dosierungen von Carbachol (10⁻⁶ bis 10⁻²M). Danach wurde die niedrigste Dosis des Antagonisten dem Perfusat beigegeben und die Dosis-Wirkungs-Kurve erneut aufgenommen. Darauffolgend gab man eine höhere Dosis des Antagonisten zu und es wurde der Einfluß von Carbachol auf den Coronarfluß (CF) und die Herzfrequenz (HF) erneut durch die Aufnahme von Dosis-Wirkungs-Kurven quantifiziert.

[2] = test system: glattmuskuläre coronare Muscarinrezeptoren; test: Isolated perfused Langendorff heart: antagonism of the carbachol effect on coronary flow (CF); design: species or system Wistar Ratten; settings: for Coronarselektivität (Affinität für coronare vs. frequenzbeeinflussende M-Rezeptoren): comparison of CF and HR effects in the isolated rat heart; for pA₂-Werte Coronarflußeffekt CF: isolated rat heart, agonist Carbachol bolus 10⁻⁶ bis 10⁻²M, antagonist in perfusate, constant pressure 70 mm Hg
Experimental: as §1, §2, §3

SMILES	Kb [1]	Coronarselektivität (Affinität für coronare vs. frequenzbeeinflussende M-Rezeptoren) [2]	pA₂-Werte Coronarflußeffekt CF [2]	Kb ([2]; read-out: pA₂-Werte Coronarflußeffekt CF (converted))
CN1CCC(CC(=O)N2c3ccccc3C(=O)Nc3cccc(Cl)c32)CC1 (racemic) [Substanz I, 6-Chlor-5,10-dihydro-5-[(1-methyl-4-piperidinyl)acetyl]-11H-dibenzo[b,e][1,4]diazepin-11-on]	0.0501 µM	höhere Affinität für coronare als für frequenzbeeinflussende M-Rezeptoren	7,9 ± 0,2	
CN1C2CCC1CC(OC(=O)C(CO)c1ccccc1)C2 (racemic) [Atropin, reference compound]				0.000631 µM
CN1CCC(CC(=O)N2c3ccccc3C(=O)Nc3cccc(Cl)c32)CC1 (single isomer, unassigned) [Substanz II, (+)-6-Chlor-5,10-dihydro-5-[(1-methyl-4-piperidinyl)acetyl]-11H-dibenzo[b,e][1,4]diazepin-11-on]	0.0316 µM	höhere Affinität für coronare als für frequenzbeeinflussende M-Rezeptoren	8,2 ± 0,1	
